# Test results reported in patent US20210283073A1, “AGENT FOR INHIBITING RECURRENCE OF HEM[…] PATIENTS WHO HAVE UNDERGONE HEMATOPOIETIC STEM CELL TRANSPLANTATION” (Priothera Limited, priority 2018, published 2021).
# Like-named read-outs stand apart in the source and are kept apart here.
# System: patients who have undergone hematopoietic stem cell transplantation for the treatment of hematological malignancies
# Settings: for number of days of recurrence of hematological malignancies / number of days of death: days from allogeneic HSCT; for Recurrence rate / Survival rate: one year after allogeneic HSCT
# Procedure: The clinical tests were performed as described below
# The following four types of immunosuppressants were used in the clinical tests. • 2-Amino-2-[4-(3-benzyloxyphenylthio)-2-chlorophenyl] ethyl-propane-1,3-diol hydrochloride (prepared as capsules containing 0.5, 1, 2, 3, 4, or 5 mg in terms of 2-amino-2-[4-(3-benzyloxyphenylthio)-2-chlorophenyl] ethyl-propane-1,3-diol)) • Methotrexate • Cyclosporin A • Tacrolimus
# 23 patients participated in the clinical tests.
# The clinical tests was carried out according to the following schedule. However, changes were made appropriately depending on the condition of the patient and the like.
# A: Screening (from the −50th day to the −2nd day), Baseline (the −1st day)
# B: Treatment with 2-amino-2-[4-(3-benzyloxyphenylthio)-2-chlorophenyl] ethyl-propane-1,3-diol hydrochloride (from the 1st day to the 111th day)
# B′: Treatment with other immunosuppressants (according to hospital standards, and the like)
# C: Conditioning regimen (from the 2nd day to the 10th day)
# D: Allogeneic hematopoietic stem cell transplantation (the 11th day)
# E: Follow-up (from the 12th day to the 376th day), additional follow-up (from the 377th day)
# A predetermined amount of 2-amino-2-[4-(3-benzyloxyphenylthio)-2-chlorophenyl] ethyl-propane-1,3-diol hydrochloride was administered to the patients once a day, as well as, other immunosuppressants were administered to the patients on a dosing schedule and dosage according to the hospital standards and the like. The daily dosage of 2-amino-2-[4-(3-benzyloxyphenylthio)-2-chlorophenyl] ethyl-propane-1,3-diol hydrochloride administered to each patient (value in terms of 2-amino-2-[4-(3-benzyloxyphenylthio)-2-chlorophenyl] ethyl-propane-1,3-diol, the same is applied to the descriptions hereinafter), the administration period of time, and the types of the other immunosuppressants are shown in Table 2 (KRP: 2-amino-2-[4-(3-benzyloxyphenylthio)-2-chlorophenyl] ethyl-propane-1,3-diol hydrochloride, MTX: methotrexate, CyA: cyclosporin A, and Tac: tacrolimus).
# The conditions of patients who underwent allogeneic hematopoietic stem cell transplantation were subjected to following up for a certain period of time. In the table, the follow-up period, the number of days of recurrence of hematological malignancies and the number of days of death represent the number of days passing from the day when allogeneic hematopoietic stem cell transplantation was performed. The survival rate and recurrence rate were calculated in accordance with the Kaplan-Meier method.
# [1] = Patient No. 1, Multiple myeloma, KRP 3 mg + MTX + CyA, KRP 34 days, follow-up 749 days
# [2] = Patient No. 2, Acute lymphocytic leukemia, KRP 3 mg + MTX + CyA, KRP 108 days, follow-up 731 days
# [3] = Patient No. 3, Acute lymphocytic leukemia, KRP 3 mg + MTX + CyA, KRP 107 days, follow-up 734 days
# [4] = Patient No. 4, Myelodysplasia syndrome, KRP 3 mg + MTX + CyA, KRP 35 days, follow-up 532 days
# [5] = Patient No. 4, Myelodysplasia syndrome, KRP 3 mg + MTX + CyA, KRP 35 days
# [6] = Patient No. 5, B-cell lymphoma, KRP 3 mg + MTX + CyA, KRP 111 days, follow-up 819 days
# [7] = Patient No. 6, Acute myeloid leukemia, KRP 3 mg + MTX + CyA, KRP 107 days, follow-up 347 days
# [8] = Patient No. 7, Acute lymphocytic leukemia, KRP 3 mg + MTX + CyA, KRP 98 days, follow-up 727 days
# [9] = Patient No. 8, Myelodysplasia syndrome, KRP 3 mg + MTX + CyA, KRP 111 days, follow-up 704 days
# [10] = Patient No. 9, Acute myeloid leukemia, KRP 3 mg + MTX + CyA, KRP 86 days, follow-up 728 days
# [11] = Patient No. 10, Acute myeloid leukemia, KRP 3 mg + MTX + CyA, KRP 111 days, follow-up 876 days
# [12] = Patient No. 10, Acute myeloid leukemia, KRP 3 mg + MTX + CyA, KRP 111 days
# [13] = Patient No. 11, Chronic myeloid leukemia, KRP 1 mg + MTX + CyA, KRP 111 days, follow-up 617 days
# [14] = Patient No. 12, Myelodysplasia syndrome, KRP 3 mg + MTX + Tac, KRP 79 days, follow-up 110 days
# [15] = Patient No. 12, Myelodysplasia syndrome, KRP 3 mg + MTX + Tac, KRP 79 days
# [16] = Patient No. 13, Acute lymphocytic leukemia, KRP 1 mg + MTX + CyA, KRP 43 days, follow-up 326 days
# [17] = Patient No. 13, Acute lymphocytic leukemia, KRP 1 mg + MTX + CyA, KRP 43 days
# [18] = Patient No. 14, Acute myeloid leukemia, KRP 1 mg + MTX + CyA, KRP 111 days, follow-up 669 days
# [19] = Patient No. 15, Chronic myeloid leukemia, KRP 3 mg + MTX + Tac, KRP 111 days, follow-up 554 days
# [20] = Patient No. 16, Acute myeloid leukemia, KRP 3 mg + MTX + Tac, KRP 117 days, follow-up 375 days
# [21] = Patient No. 17, Acute myeloid leukemia, KRP 3 mg + MTX + Tac, KRP 111 days, follow-up 246 days
# [22] = Patient No. 18, Myelofibrosis, KRP 3 mg + MTX + Tac, KRP 111 days, follow-up 310 days
# [23] = Patient No. 18, Myelofibrosis, KRP 3 mg + MTX + Tac, KRP 111 days
# [24] = Patient No. 19, Acute myeloid leukemia, KRP 1 mg + MTX + CyA, KRP 24 days, follow-up 99 days
# [25] = Patient No. 20, Chronic myeloid leukemia, KRP 1 mg + MTX + CyA, KRP 111 days, follow-up 193 days
# [26] = Patient No. 21, Non-hodgkin lymphoma/Hodgkin disease, KRP 3 mg + MTX + Tac, KRP 62 days, follow-up 79 days
# [27] = Patient No. 21, Non-hodgkin lymphoma/Hodgkin disease, KRP 3 mg + MTX + Tac, KRP 62 days
# [28] = Patient No. 22, Non-hodgkin lymphoma/Hodgkin disease, KRP 3 mg + MTX + Tac, KRP 107 days, follow-up 264 days
# [29] = Patient No. 22, Non-hodgkin lymphoma/Hodgkin disease, KRP 3 mg + MTX + Tac, KRP 107 days
# [30] = Patient No. 23, Chronic myeloid leukemia, KRP 1 mg + MTX + CyA, KRP 111 days, follow-up 264 days
# [31] = all 23 patients, KRP 1 or 3 mg/day + MTX + CyA or Tac, Kaplan-Meier
# [32] = Chronic myeloid leukemia, 4 patients
# [33] = KRP 1 mg + MTX + CyA, 6 patients
# [34] = KRP 3 mg + MTX + CyA, 10 patients, hydrochloride
# [35] = KRP 3 mg + MTX + CyA, 10 patients, listed as 2-amino-2-[4-(3-benzyloxyphenylthio)-2-chlorophenyl] ethyl-propane-1,3-diol, hydrochloride
# [36] = KRP 3 mg + MTX + Tac, 7 patients
# [37] = Myelodysplasia syndrome, 3 patients
# [38] = Non-hodgkin lymphoma/Hodgkin disease, 2 patients
# [39] = administration period 80 days or more, 17 patients, hydrochloride
# [40] = administration period 80 days or more, 17 patients, listed as 2-amino-2-[4-(3-benzyloxyphenylthio)-2-chlorophenyl] ethyl-propane-1,3-diol, hydrochloride
# [41] = administration period 100 days or more, 15 patients, hydrochloride
# [42] = administration period 100 days or more, 15 patients, listed as 2-amino-2-[4-(3-benzyloxyphenylthio)-2-chlorophenyl] ethyl-propane-1,3-diol, hydrochloride
structure (smiles),measurement,setting,value
"Cl.NC(CO)(CO)CCc1ccc(Sc2cccc(OCc3ccccc3)c2)cc1Cl [KRP, 2-amino-2-[4-(3-benzyloxyphenylthio)-2-chlorophenyl] ethyl-propane-1,3-diol hydrochloride]",Alive/dead,[1],Alive
same,Yes/No of recurrence of hematological malignancy,[1],Yes
same,number of days of recurrence of hematological malignancies,"Patient No. 1, Multiple myeloma, KRP 3 mg + MTX + CyA, KRP 34 days",(749th day)
same,Alive/dead,[2],Alive
same,Yes/No of recurrence of hematological malignancy,[2],No
same,Alive/dead,[3],Alive
same,Yes/No of recurrence of hematological malignancy,[3],No
same,Alive/dead,[4],Dead
same,Yes/No of recurrence of hematological malignancy,[4],Yes
same,number of days of death,[5],(532nd day)
same,number of days of recurrence of hematological malignancies,[5],(287th day)
same,Alive/dead,[6],Alive
same,Yes/No of recurrence of hematological malignancy,[6],No
same,Alive/dead,[7],Alive
same,Yes/No of recurrence of hematological malignancy,[7],No
same,Alive/dead,[8],Alive
same,Yes/No of recurrence of hematological malignancy,[8],No
same,Alive/dead,[9],Alive
same,Yes/No of recurrence of hematological malignancy,[9],No
same,Alive/dead,[10],Alive
same,Yes/No of recurrence of hematological malignancy,[10],Yes
same,number of days of recurrence of hematological malignancies,"Patient No. 9, Acute myeloid leukemia, KRP 3 mg + MTX + CyA, KRP 86 days",(102nd day)
same,Alive/dead,[11],Dead
same,Yes/No of recurrence of hematological malignancy,[11],Yes
same,number of days of death,[12],(876th day)
same,number of days of recurrence of hematological malignancies,[12],(757th day)
same,Alive/dead,[13],Alive
same,Yes/No of recurrence of hematological malignancy,[13],No
same,Alive/dead,[14],Dead
same,Yes/No of recurrence of hematological malignancy,[14],Yes
same,number of days of death,[15],(110th day)
same,number of days of recurrence of hematological malignancies,[15],(110th day)
same,Alive/dead,[16],Dead
same,Yes/No of recurrence of hematological malignancy,[16],Yes
same,number of days of death,[17],(326th day)
same,number of days of recurrence of hematological malignancies,[17],(252nd day)
same,Alive/dead,[18],Alive
same,Yes/No of recurrence of hematological malignancy,[18],No
same,Alive/dead,[19],Alive
same,Yes/No of recurrence of hematological malignancy,[19],No
same,Alive/dead,[20],Alive
same,Yes/No of recurrence of hematological malignancy,[20],No
same,Alive/dead,[21],Alive
same,Yes/No of recurrence of hematological malignancy,[21],Yes
same,number of days of recurrence of hematological malignancies,"Patient No. 17, Acute myeloid leukemia, KRP 3 mg + MTX + Tac, KRP 111 days",(98th day)
same,Alive/dead,[22],Dead
same,Yes/No of recurrence of hematological malignancy,[22],Yes
same,number of days of death,[23],(310th day
same,number of days of recurrence of hematological malignancies,[23],(105th day)
same,Alive/dead,[24],Alive
same,Yes/No of recurrence of hematological malignancy,[24],Yes
same,number of days of recurrence of hematological malignancies,"Patient No. 19, Acute myeloid leukemia, KRP 1 mg + MTX + CyA, KRP 24 days",(77th day)
same,Alive/dead,[25],Alive
same,Yes/No of recurrence of hematological malignancy,[25],No
same,Alive/dead,[26],Dead
same,Yes/No of recurrence of hematological malignancy,[26],Yes
same,number of days of death,[27],(79th day
same,number of days of recurrence of hematological malignancies,[27],(49th day)
same,Alive/dead,[28],Dead
same,Yes/No of recurrence of hematological malignancy,[28],Yes
same,number of days of death,[29],(264th day
same,number of days of recurrence of hematological malignancies,[29],(121st day)
same,Alive/dead,[30],Alive
same,Yes/No of recurrence of hematological malignancy,[30],No
same,recurrence rate of hematologic malignancy one year after allogeneic hematopoietic stem cell transplantation,[31],40%
same,survival rate of the patients one year after allogeneic hematopoietic stem cell transplantation,[31],75%
same,Recurrence rate,"Acute lymphocytic leukemia, 4 patients",25%
same,Survival rate,"Acute lymphocytic leukemia, 4 patients, hydrochloride",75%
same,Survival rate,"Acute lymphocytic leukemia, 4 patients, listed as 2-amino-2-[4-(3-benzyloxyphenylthio)-2-chlorophenyl] ethyl-propane-1,3-diol, hydrochloride",75%
same,Recurrence rate,"Acute myeloid leukemia, 7 patients",43%
same,Survival rate,"Acute myeloid leukemia, 7 patients, hydrochloride",100%
same,Survival rate,"Acute myeloid leukemia, 7 patients, listed as 2-amino-2-[4-(3-benzyloxyphenylthio)-2-chlorophenyl] ethyl-propane-1,3-diol, hydrochloride",100%
same,Recurrence rate,"B-cell lymphoma, 1 patient",0%
same,Survival rate,"B-cell lymphoma, 1 patient",100%
same,Recurrence rate,[32],0%
same,Survival rate,[32],100%
same,Recurrence rate,[33],38%
same,Survival rate,[33],67%
same,Recurrence rate,[34],20%
same,Survival rate,[34],100%
same,Recurrence rate,[35],20%
same,Survival rate,[35],100%
same,Recurrence rate,[36],71%
same,Survival rate,[36],36%
same,Recurrence rate,"Multiple myeloma, 1 patient",0%
same,Survival rate,"Multiple myeloma, 1 patient",100%
same,Recurrence rate,[37],67%
same,Survival rate,[37],67%
same,Recurrence rate,"Myelofibrosis, 1 patient",100%
same,Survival rate,"Myelofibrosis, 1 patient",0%
same,Recurrence rate,[38],100%
same,Survival rate,[38],0%
same,Recurrence rate,"administration period 60 days or more, 19 patients",32%
same,Survival rate,"administration period 60 days or more, 19 patients, hydrochloride",77%
same,Survival rate,"administration period 60 days or more, 19 patients, listed as 2-amino-2-[4-(3-benzyloxyphenylthio)-2-chlorophenyl] ethyl-propane-1,3-diol, hydrochloride",77%
same,Recurrence rate,[39],24%
same,Survival rate,[39],86%
same,Recurrence rate,[40],24%
same,Survival rate,[40],86%
same,Recurrence rate,[41],20%
same,Survival rate,[41],84%
same,Recurrence rate,[42],20%
same,Survival rate,[42],84%
